# Data: US4077954A, “N-(p-methylphenethyl)-4a-aryl-trans-decahydroisoquinolines” (priority 1976, dated 1978)
# Counter-ions that a name gives are not always drawn. Like-named read-outs stand apart in the source and are kept apart here.
# Legend:
# mice [1] = details: cited from earlier work
# in vivo = details: mouse
# mice [2] = details: cited from earlier work; remark: listed apart in the source
# [3] = literature statement; cited from earlier work
# [4] = system: mice (phenylquinone-induced writhing); experiment: phenylquinone writhing test (analgesic ED50), oral, mice; type: in vivo, female white mice; details: Mus musculus, read-out: ED50 analgesia
# Experimental: A standard procedure for detecting and comparing the analgesic activity of compounds in this series for which there is good correlation with human efficacy is the standard phenylquinone writhing test modified from Siegmund, et. at., Proc. Soc. Exp. Biol. Med. 95, 729 (1957). A test compound suspended in 1% methylcellulose was given orally to fasted (17-21 hours) female white mice, 5-20 animals per double blind test. Aqueous (0.01% phenyl-p-benzoquinone) phenylquinone was injected intraperitoneally at 24 minutes later using 0.20 ml per mouse. […] The effective analgesic dose for 50% of the mice (ED 50) was calculated by the moving average method of Thompson, W. R., Bact. Rev. 11, 115-145 (1947).
# [5] = Straub tail test (Straub tail ED50), intraperitoneal, mice; design: species or system CF1S female mice; details: mouse, in vivo; for ED50 at 25 min: ip, mice, intraperitoneal, within 25 minutes after dosing, read-out: ED50^ST (Straub tail ED50)
# Experimental: Narcotic analgesics produce in mice an erection and arching of the tail (90° or more) which is referable to spinal cord stimulation. This straub tail reaction is not produced by other analgesics, including the narcotic antagonists.
# The method used was modified from Shemano, I., and Wendel, H., Tox. Appl. Pharm. 6, 334-9 (1964). CF1 S female mice (18-21 g), 10-20 mice per dose were injected intraperitoneally with log scaled doses of analgesic in 1% aqueous methylcellulose. A positive Straub tail response was recorded if a tail was erected 90° or more for 5 seconds at any time within 25 minutes after dosing. A quantal Straub tail ED50 was calculated by the moving average method. (Thompson, W. R., Bact. Rev. 11, 115-145 (1947).
# [6] = Goodman & Gilman 1965; cited from earlier work
# [7] = oral, Belgian Patent 802,557 compound
smiles,measurement,setting,value
CC1C2Cc3ccc(O)cc3C1(C)CCN2CCc1ccccc1 (stereo not shown) [Phenzaocine hydrobromide],analgesic ED50,"mice [1]; mice, Shemano and Wendel 1964",0.2 mg/kg
same,selectivity ratio,in vivo,~2.5
same,Straub tail ED50,"mice [2]; mice, Shemano and Wendel 1964",0.5 mg/kg
CN1CCC2(c3ccccc3)CCCCC2C1 (stereo not shown) [N-methyl-4a-phenyl-decahydroisoquinoline],analgesic activity,[3],low analgesic activity
Cc1ccc(CCN2CC[C@]3(c4cccc(O)c4)CCCC[C@H]3C2)cc1 (relative stereo) [N-(p-methylphenethyl)-4a-(m-hydroxyphenyl)-trans-decahydroisoquinoline],ED50,[4],2 mg/kg
same,ED50 at 25 min,[5],93 mg/kg
same,selectivity ratio,"[5]; ratio of Straub tail ED50 to analgesic ED50, read-out: ED50^ST /ED50^analgesia",46
"CC1C2Cc3ccc(O)cc3C1(C)CCN2CCc1ccccc1 (stereo not shown) [phenazocine, 2'-hydroxy-5,9-dimethyl-2-phenethyl-6,7-benzomorphan]",analgesic activity,[3],potent analgesic
same,morphine-like actions,[6],"produces the entire range of morphine-like actions, including respiratory depression, constipation, and physical dependence"
CN1CC[C@]23c4c5ccc(O)c4O[C@H]2[C@@H](O)C=C[C@H]3[C@H]1C5 [morphine],ED50^analgesia,"mice [1]; morphine, background section",5.6 mg/kg
Cc1ccc(CCN2CC[C@@]3(c4cccc(O)c4)CC(C)CC[C@@H]3C2)cc1 (stereo partly drawn) [N-(p-methylphenethyl)-4a-(m-hydroxyphenyl)-6-methyl-trans-decahydroisoquinoline],ED50,[4],2 mg/kg
same,ED50 at 25 min,[5],135 mg/kg
COc1cccc([C@@]23CCCC[C@H]2CN(CCc2ccc(C)cc2)CC3)c1 (relative stereo) [N-(p-methylphenethyl)-4a-(m-methoxyphenyl)-trans-decahydroisoquinoline],ED50,[4],5.8 mg/kg
same,ED50 at 25 min,[5],93 mg/kg
COc1cccc([C@@]23CCN(CCc4ccc(C)cc4)C[C@H]2CCC(C)C3)c1 (stereo partly drawn) [N-p-methylphenethyl-4a-(m-methoxyphenyl)-6-methyl-trans-decahydroisoquinoline],ED50,[4],8.7 mg/kg
same,ED50 at 25 min,[5],> 135 mg/kg
Oc1cccc([C@@]23CCCC[C@H]2CN(CCc2ccccc2)CC3)c1 (relative stereo) [N-phenethyl-4a-(m-hydroxyphenyl)-trans-decahydroisoquinoline],ED50^analgesia,mice [1]; [7],6.6 mg/kg
same,selectivity ratio,in vivo; po,~1
same,ED50^ST,mice [2]; [7],10 mg/kg
